{"source": "patent US9212359B2", "about": "“Systems for induction of gene expression and protein depletion in yeast” (priority 2011, dated 2015)", "molecules": {"B1": {"name": "NDeg-Met4p-13Myc: N-degron-tagged, 13Myc-tagged Met4p target protein (DBY12055) (protein, UniProt P32389 1-672, looked up)", "Transcriptional activator of …": "MKQEQSHEGDSYSTEFINLFGKDTATHPSSNNGANNNGMGSTNSLDQFVATASSSSSLVTSSENRRPLIGDVTNRGNTNLYDHAVTPEILLEQLAYVDNFIPSLDNEFSNVDWNVNTTHNNANNNGADTFSSINANPFDLDEQLAIELSAFADDSFIFPDEDKPSNNNNNSNNGNDDHSNHDVLHEDPSTNNRQRNPHFLTQRRNTFLTSQYDQSKSRFSSKNKRNGNNGETNNFGDNMQNNHPFEPNFMGSPSQFPADATNMTSIDHGGFTNVDITSTENNTTGDNGVDALSNLLHRTTHTPNRSSPLSNVTSAQNSSSQQRKHSESKVDSNSDNNSSNKAPNITVPDYSIIPTSVLVTLLPRVNVPNGAYNSLISAGFDNDQIDAIAAIMAYHHQKKIRENNSNNNKNINTNDSQEAPILKNINELLSVLIPPSPAETRGPTTLSTSPSFNEHGVVAEASFLSSILELGIKHPKSNNIHNQRQPSRNDHKISRESDGNNGNDNVHHNNAVIKSSTTRGDEIAKIRSEPTLNASSSDHKENSLKRSHSGDLKNKKVPVDRKYSDNEDDEYDDADLHGFEKKQLIKKELGDDDEDLLIQSKKSHQKKKLKEKELESSIHELTEIAASLQKRIHTLETENKLLKNLVLSSGETEGIKKAESLKKQIFEKVQKE", "modifications": "N-degron tag; 13Myc tag"}, "B2": {"name": "Met4p-13Myc: 13Myc-tagged Met4p lacking NDeg (DBY11440), control protein (protein, UniProt P32389 1-672, looked up)", "Transcriptional activator of …": "B1 Transcriptional activator of …", "modifications": "13Myc tag", "notes": "13Myc-tagged Met4p lacking NDeg (DBY11440), control protein"}, "B3": {"name": "NDeg-Met31p-13Myc: N-degron-tagged, 13Myc-tagged Met31p target protein (DBY12234) (protein, UniProt Q03081 1-177, looked up)", "Transcriptional regulator …": "MKLAQDMNVDEIFLKQAAEAIAVISSSPTHTDPIIRELLHRIRQSSPLSAVIPAPENVLKAGEPENMARGLIRIPETQTKRTGGNNHSKEGAQLYSCAKCQLKFSRSSDLRRHEKVHSLVLPHICSNCGKGFARKDALKRHSNTLTCQRNRKKLSEGSDVDVDELIKDAIKNGTGLL", "modifications": "N-degron tag, 13Myc tag"}, "B4": {"name": "Met31p-13Myc: 13Myc-tagged Met31p lacking NDeg (DBY12235), control protein (protein, UniProt Q03081 1-177, looked up)", "Transcriptional regulator …": "B3 Transcriptional regulator …", "modifications": "C-terminal 13Myc tag", "notes": "13Myc-tagged Met31p lacking NDeg (DBY12235), control protein"}}, "type_in_all_cases": "cell-based, S. cerevisiae", "key": {"GEV-GFP": {"system": "GEV-GFP", "test": "GEV-GFP nuclear localization after β-estradiol pulse, single-cell microscopy (DBY11415)", "description": "Fluorescence was measured with an epifluorescence Nikon Eclipse-TI inverted microscope using a Nikon 40×/0.95NA DIC Plan Apo objective. The microscope is equipped with a PerfectFocus system (Nikon) for maintaining the correct focal plane, a Clara CCD Camera (Andor DR328G) for recording fluorescence emission, and a TI-S-ER motorized stage with encoders to ensure near perfect return to marked stage positions (Nikon MEC56100). GEV-GFP emission was visualized at 525 nm (50-nm bandwidth) upon excitation at 470 nm (40-nm bandwidth) (Chroma #49002_Nikon ETGFP filter cube). […]\nOvernight cultures of DBY11415 (MATa/MATα HTB2-mCherry-caURA3/HTB2 his3/HIS3, (gal1+PGAL10):: loxP/GAL1, gal4::LEU2/GAL4, HAP1+/hap1−, leu2Δ0::PACT1-GEV-GFP-KanMX/LEU2) were grown in LFM overnight to saturation. […] The Klett was monitored, and at Klett 40 cells were loaded into 96-well glass-bottomed optical plates for microscopy (Nunc #265300). […]\nImage processing was performed by preprocessing the images in ImageJ and then using a custom written Matlab script to extract the intensities in the nuclei relative to the cytoplasm. Briefly, the image processing was done as follows: Fluorescence images were background subtracted using the rolling ball background subtraction command in ImageJ using a ball radius of 50 pixels. […]\nThese preprocessed images were then analyzed using a custom-written Matlab script. […]"}, "DBY12021 [1]": {"system": "DBY12021", "test": "Growth curves in YPD liquid with β-estradiol", "description": "100 μL of cells+media were grown on flat-bottom 96-well plates (Costar #3631). A600 was measured every 15 minutes in a Synergy HT (Biotek; Vermont) microplate reader. Cells were grown at 30° C. with medium shaking. Growth rates were computed with spline-fits using the grofit R package (KAHM et al. 2010)."}, "DBY12021 [2]": {"system": "DBY12021", "test": "Genome-wide expression after β-estradiol pulse in phosphate-limited chemostat, microarray (DBY12021)", "description": "(§1) For induction experiments, yeast were cultured in 500 mL chemostats (Sixfors; Bottmingen, Switzerland) under phosphate-limitation (20 mg/L potassium phosphate) and pulsed with 1 μM β-estradiol (Tocris Biosciences; Missouri). For the MET4 induction experiment, phosphate-limited media was supplemented with 200 mg/L methionine. Culture volume was maintained at 300 mL. 12-18 hours of batch phase growth prior to pump turn-on was initiated from a 1/60 dilution of cells grown overnight in the same medium. Cultures were grown at 30° C., stirred at 400 RPM, and aerated at 5 L/min with filtered humidified air.\nRNA from cells was extracted, labeled, and hybridized to Agilent expression microarrays as described by (Brauer et al., 2008) with slight modifications. Briefly, RNA was extracted from frozen cells with a standard acid-phenol method and then cleaned with RNeasy (Qiagen). Cleaned mRNA was then converted to cDNA and subsequently converted to labeled cRNA with the Agilent Quick-Amp Labeling Kit (Part No. 5190-0424). Microarray hybridizations were performed for 17 hours at 65° C. and rotated on a rotisserie at 20 RPM. Microarrays were washed and then scanned with Agilent Feature Extractor Software version 9.5. Flagged features marked as unreliable were marked N/A. Raw green- and red-channel intensities were floored to a value of 350 (i.e., intensities below 350 were set equal to 350). If the numerator (red-channel, sample RNA) for a given measurement was floored, the denominator (green-channel, reference RNA) for that measurement was set to the average green channel intensity for that gene. The purpose of this smoothing process is to make genes with negligible red-channel signal intensity less sensitive to small fluctuations in the reference intensity. After flooring of the data, the log 2 ratios were computed.\nFor time series experiments, 5 mL of cells were taken per culture per time point. Reference RNA was taken from DBY12001 grown in a phosphate-limited chemostat at a dilution rate of 0.18 h^−1. Enrichment for gene ontology (GO) terms was determined using GO-term finder (Boyle et al., 2004)."}, "PGAL1-CBF1": {"system": "PGAL1-CBF1", "test": "GEV-mediated induction of PGAL1-CBF1 transcript, microarray (DBY12040)", "details": "by 5 minutes following addition of β-estradiol", "description": "as §1\nRNA from cells was extracted, labeled, and hybridized to Agilent expression microarrays as described by (Brauer et al., 2008) with slight modifications. Briefly, RNA was extracted from frozen cells with a standard acid-phenol method and then cleaned with RNeasy (Qiagen). Cleaned mRNA was then converted to cDNA and subsequently converted to labeled cRNA with the Agilent Quick-Amp Labeling Kit (Part No. 5190-0424). Microarray hybridizations were performed for 17 hours at 65° C. and rotated on a rotisserie at 20 RPM. Microarrays were washed and then scanned with Agilent Feature Extractor Software version 9.5. […]\nFor time series experiments, 5 mL of cells were taken per culture per time point. […] Enrichment for gene ontology (GO) terms was determined using GO-term finder (Boyle et al., 2004)."}, "[3]": {"system": "TEV protease / N-end rule degradation", "test": "Western blot of N-degron-tagged proteins after GEV-mediated induction of TEV", "details": "1 μM β-estradiol, YPD; for half-life of NDeg-tagged protein: power-law fit of 10, 20 and 40-minute timepoints", "description": "Total protein was extracted from ˜10 mL aliquots of cultures at ˜2×10^7 cells/mL using YPX extraction kit (Protein Discovery, Knoxville, Tenn.) with the addition of protease inhibitors (Roche tablets, cat#11836170001). Proteins were separated using Invitrogen NuPage precast 10% Bis-Tris gels and transferred to Invitrolon PVDF (Invitrogen cat#LC2005) according to the manufacturer's protocols. Primary antibody for the β-Myc epitope was mouse anti-human c-Myc from BD Pharmingen (cat#51-1485GR). Secondary antibody was goat anti-mouse-HRP (cat#115-035-003) from Jackson ImmunoResearch. Primary antibody dilution was typically 1/1000 and secondary antibodies were used at 1/10,000 dilution. Immunoreactive peptides were detected by incubation with ECL^+ detection reagent (Amersham/GE RPN2132) and imaging on HyBlot CL autoradiography film (Denville Scientific, Metuchen, N.J.). As a loading control, blots were probed with mouse monoclonal anti-β-Actin antibody loading control cat#ab8224, Abcam, Cambridge, Mass. ( 1/600 or 1/2000). Secondary antibody was as above, goat anti-mouse-HRP. Protein levels were quantified with the “Gel Analysis” feature in ImageJ and normalized to the t=0 levels in each time course.\nMET4 and MET31 genes were chosen for use in a proof of principle experiment to exemplify the protein depletion method (FIG. 8). We constructed Ndeg-modified MET4 and MET31 alleles in separate strains containing GEV and PGAL1-TEV (see Materials and Methods). Cells were grown in rich medium (YPD) and treated with 1 μMβ-estradiol at ˜2×10^7 cells/mL. Western blots were performed on proteins extracted at several time points after induction (FIG. 9). Treatment of cultures with 1 μM β-estradiol had no effect on levels of Met4p-13Myc or Met31p-13Myc lacking NDeg (FIG. 9A, 9B)."}, "[4]": {"details": "two hours following saturating (1 μM) β-estradiol addition"}}}
{"molecule": "C[C@]12CC[C@@H]3c4ccc(O)cc4CC[C@H]3[C@@H]1CC[C@@H]2O", "note": "[β-estradiol]", "values": [{"measurement": "concentration at which the initial rate of localization achieved its maximum", "setting": "GEV-GFP", "value": "≥ 1", "unit": "µM"}, {"measurement": "effect on growth of GEV-containing cells", "setting": "DBY12021 [1]; 10 nM β-estradiol", "value": "no longer show the growth defect"}, {"measurement": "effect on growth of GEV-containing cells", "setting": "DBY12021 [1]; high concentrations of β-estradiol", "value": "slowing of growth"}, {"measurement": "β-estradiol toxicity, growth of a strain lacking the GEV system", "setting": "DBY12021 [1]; strain lacking the GEV system", "value": "slow growth does not occur"}, {"measurement": "share of the entire genome affected by GEV-mediated activation", "setting": "DBY12021 [2]; 3-hour time course, K-means clustering of time course data", "value": "less than 2%"}, {"measurement": "share of all S. cerevisiae genes changed 2-fold", "setting": "DBY12021 [2]; two hours following 1 μM β-estradiol", "value": "about 3%"}, {"measurement": "number of genes that decrease 2-fold", "setting": "DBY12021 [2]; [4]", "value": 105, "unit": "genes"}, {"measurement": "number of genes that increase 2-fold", "setting": "DBY12021 [2]; [4]", "value": 94, "unit": "genes"}, {"measurement": "CBF1 transcript level, share of maximal value", "setting": "PGAL1-CBF1", "value": "~70", "unit": "%"}]}
{"molecule": "B1", "values": [{"measurement": "half-life of NDeg-tagged protein", "setting": "[3]", "value": 16, "unit": "min"}]}
{"molecule": "B2", "values": [{"measurement": "effect of β-estradiol treatment on levels of protein lacking NDeg", "setting": "[3]", "value": "no effect"}]}
{"molecule": "B3", "values": [{"measurement": "half-life of NDeg-tagged protein", "setting": "[3]", "value": 13.75, "unit": "min"}]}
{"molecule": "B4", "values": [{"measurement": "effect of β-estradiol treatment on levels of protein lacking NDeg", "setting": "[3]", "value": "no effect"}]}
